Measured values reported in article PMC12010006, “Subnanomolar MAS-related G protein-coupled receptor-X2/B2 antagonists with efficacy in human mast cells and disease models” (Signal Transduction and Targeted Therapy, 2025).
“Also recorded” adds a separate entry of the source.

Columns and labels:
[1] = tested on: C48/80-induced hind paw edema; experiment: Local allergic reaction (hind paw edema); type: in vivo, mouse; conditions: 50 mg/kg b.w., i.p.; C48/80 20 µL of 30 µg/mL into right hind paw; listed as PSB-172656
Description: PSB-172656 was further investigated in a mouse model of skin inflammation,[54] determining its effects on C48/80-induced hind paw edema. […] These findings indicate a strong anti-inflammatory effect of the MRGPRX2/B2 antagonist in this mouse model. Mice were given the antagonist PSB-172656 intraperitoneally at a dose of 50 mg/kg b.w. or vehicle (2% DMSO). The volume of the paws (both right (test) and left (control)) was measured using a plethysmometer (7140, UgoBasile, Italy). After 30 min, 20 µL of C48/80 (30 µg/mL) were injected into the right paw and 20 µL of 0.9% NaCl into the left paw. After 15 min, paw thickness was measured again. Mice were then killed by dislocation of cervical vertebrae. The mouse model has been described previously.[54],[69]

[2] = molecular target: T1, MRGPRX2 (Homo sapiens, UniProt Q96LB1); experiment: TRUPATH Gαi1 dissociation assay, LN229 cells expressing MRGPRX2; type: cell-based; set-up: expressed in transfected cells; host or cells: LN229 human glioblastoma cells; plasmid pLXSN-MRGPRX2 (Addgene #213960); conditions: 100 nM, preincubation
T1 sequence (Q96LB1 1-330): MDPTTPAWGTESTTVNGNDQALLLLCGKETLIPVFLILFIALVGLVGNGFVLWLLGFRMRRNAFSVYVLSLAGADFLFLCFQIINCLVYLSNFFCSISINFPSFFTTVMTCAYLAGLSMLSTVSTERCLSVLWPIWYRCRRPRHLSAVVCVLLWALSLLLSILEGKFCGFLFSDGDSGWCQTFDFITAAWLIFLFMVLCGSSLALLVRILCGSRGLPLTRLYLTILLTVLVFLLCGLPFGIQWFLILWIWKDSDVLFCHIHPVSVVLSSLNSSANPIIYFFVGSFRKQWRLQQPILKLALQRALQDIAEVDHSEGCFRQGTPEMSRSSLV
Description: Fig. 3 Biological characterization of PSB-172656. a Selectivity of PSB-172656 (100 nM) for MRGPRX2 over MRGPRX1, MRGPRX3, and MRGPRX4 measured in β-arrestin assays utilizing β-arrestin-CHO cells with recombinant expression of the respective receptor. MRGPRX1 was activated by BAM-22P (8.5 µM),[19] MRGPRX2 was activated by CST-14 (1 µM), MRGPRX3 was activated by PSB-20294 (10 µM), MRGPRX4 was activated by PSB-18061 (2.6 µM).[44] Data represent mean values ± SEM of 3-4 biological replicates, performed in duplicates. […] Data are means ± SEM of 3 biological replicates, in duplicates. Statistical significance was determined by one-way ANOVA (Tukey’s multiple comparison) test (ns P > 0.05). […] Data are means ± SEM of 3 biological replicates, performed in duplicates. e Shift assay to determine inhibition type of PSB-172656 versus CST-14. […] Extrapolated data were not used for analysis but only shown for a comprehensive view. f Schild plot for the effect of PSB-172656 on the concentration-response curves for CST-14. […]
To further investigate PSB-172656 signaling, direct activation of the relevant G protein subunits, Gαq and Gαi1,[32] was studied. This was assessed using G protein dissociation assays and LN229 cells stably overexpressing MRGPRX2 while transiently expressing the investigated G protein (Fig. 3c, d).[47]

[3] = MTT cytotoxicity assay, 1321N1 astrocytoma cells; type: cell-based; conditions: human
Description: Potential cytotoxicity of 24 and its similarly potent analogs 27 and 30 was assessed in 3-(4,5-dimethylthiazol-2-yl)-2,5-diphenyl-2H-tetrazolium bromide (MTT) assays performed on human 1321N1 astrocytoma cells (Supplementary Table S3). This cell line was chosen since it is well-established for the screening of cytotoxic drugs, making it a reliable choice for assessing cytotoxicity.[46]
For the experiment, 1321N1 astrocytoma cells were seeded at a density of 1 × 10^5 cells/well in 180 µL of cell medium into transparent 96-well plates, whereby the outer wells only contained buffer (to avoid an edge effect). Cells were incubated for 24 h at 37°C, 5% CO2. Compound dilutions were prepared in DMSO. […] Subsequently, 20 µL of these compound dilutions were added to each well so that astrocytoma cells were incubated with varying concentrations of MRGPRX2 antagonists (0.01 µM–10 µM) at 37° C, 5% CO2. 5-Fluoruracil, a cytostatic drug, served as a positive control. Medium-containing DMSO in the absence of a compound served as a negative control. After 71 h, […] of MTT solution (5 mg/mL, prepared in Millipore water) was added to each well (final concentration 0.5 mg/mL) and cells were incubated again for another hour. Subsequently, the medium was removed, and cells were lyzed by adding 100 µL of DMSO per well. In order to dissolve the produced formazan dye crystals, plates were incubated for 2 min on a rotary shaker (150 rpm). Afterward, the UV absorbance at 570 nm was measured by using SoftMax® Pro5.1 Microplate Data Acquisition & Analysis Software (Molecular Devices, Sunnyvale, CA, USA). The UV absorbance at 690 nm was measured directly afterward to eliminate the background absorbance of residual medium and cell components. The values of the measured UV absorbance at 690 nm were subtracted from the values obtained by the measurement of UV absorbance at 570 nm. Three to four independent experiments were performed, each in triplicate.

inhibition of CST-14-induced Gαi1 dissociation [2]: completely inhibited
Structure (SMILES): CCc1c(C(C)C)[nH]c2nc3cc(F)c(F)cc3n2c1=O [Compound 24, 3-ethyl-7,8-difluoro-2-isopropylbenzo[4,5]imidazo [1,2-a] pyrimidin-4(1H)-one]
effect on C48/80-induced paw swelling [1]: significant decrease in paw swelling; also recorded: prevents or reduces edema formation
CC50 at 72 h [3]: > 10 µM
cytotoxicity at 72 h, 10000 nM ([3]; up to 10,000 nM, read-out: Cytotoxicity % effect): 41%
